In paper PMC11219945, “Assessing genotoxic effects of chemotherapy agents by a robust in vitro assay based on mass spectrometric quantification of γ-H2AX in HepG2 cells” (Frontiers in Pharmacology, 2024):

Legend:
γ-H2AX in HepG2 cells [1] = assay: γ-H2AX MS assay, dose-effect relationship in HepG2 cells; settings: for γ-H2AX MEC/MS (minimum effective concentration): 24 h exposure; for Genotoxicity in γ-H2AX MS assay: tested concentration 1 mM
Experimental: Human hepatoblastoma cells (HepG2) were cultivated in DMEM medium under standard conditions (37°C in a 5% CO2 atmosphere). The culturing medium was added with 10% FBS, 100 U/mL penicillin and 100 μg/mL streptomycin.
In accordance to our previous study, cells were exposed to the chemotherapeutic agent by adding a proper volume of chemotherapeutic agent stock solution to the fresh medium without serum. Controls were treated with DMSO (0.1%) in medium. Independent biological experiments with three technical replicates were conducted.
The cells were then treated with different chemotherapy agents in serum-free medium. For a dose-effect relationship experiment, cells were exposed to each agent at either of three concentrations with a 10-fold increase for 24 h. For the time-effect relationship experiment of nine tested chemotherapy agents, cells were exposed to selected chemotherapy agents at 0.5, 1, 2, 4, 8, 12, and 24 h, with the concentration of 100 μM. Independent biological experiments with three technical replicates were performed.
(§1) The quantification of γ-H2AX was carried out according to the previous report ([Qu et al., 2021]). In short, the cell clumps were collected after a certain period of cell culture and histones were obtained by acid extraction. After nuclear isolation, histone extraction, trypsin digestion in the solution, and desalting, the peptide sample from the carboxy terminus of H2AX was analyzed. LC–MS/MS analysis was conducted using a QTRAP 5500 (AB Sciex, Framingham, United States) with an ACQUITY UPLC system (Waters Co., Manchester, United Kingdom). Chromatographic separation was carried out with an ACQUITY UPLC BEH C18 column (100 mm × 2.1 mm, 1.7 μm). The column temperature was maintained at 40°C. A 10 μL sample aliquot was injected for analysis. Mobile phases A and B were 0.1% FA in distilled H2O and acetonitrile, respectively. […] The eluent composition was maintained for 2 min, after which the system returned to 1% B and was re-equilibrated for 2 min. The eluates in the first 1 min were switched to waste to prevent contaminating the ion source. The electrospray ionization source was operated in positive mode using nitrogen as the nebulizing gas. All experiments were performed independently in at least triplicate.
To this end, we firstly examined the cytotoxicity of 34 chemotherapy agents, all of which were already well classified in terms of diverse characteristics. These tested chemotherapy agents were serially diluted for exposure to check the effects on cell viability.

[2] = combination of in vitro mouse lymphoma, chromosomal aberration, and micronucleus tests; cited from earlier work
γ-H2AX in HepG2 cells [3] = assay: γ-H2AX time-effect relationship / DNA repair kinetics (k, t50) in HepG2 cells; assay type: cell-based, Human; parameters: k (speed of γ-H2AX descending): unit not given here; settings: 100 μM, 0.5–8 h time-dependent kinetics
Experimental: The cells were then treated with different chemotherapy agents in serum-free medium. […] Independent biological experiments with three technical replicates were performed.
as §1, with “In” for “The quantification of γ-H2AX was carried out according to the previous report ([Qu et al., 2021]). In”
Here, we estimated k and t50 after exposure to nine representative chemotherapy agents based on the 0.5–8 h γ-H2AX time-dependent kinetics (Figure 5) and then obtained these parameters to describe each agent DSB repair capacity using the functions optim and optimize in R language.

| Compound | In vitro assays (genotoxicity) [2] | maximum γ-H2AX value within the selected concentration range (γ-H2AX in HepG2 cells [1]; human, 24 h) | further results |
| --- | --- | --- | --- |
| Deoxyfluridine | + |  | value of γ-H2AX (γ-H2AX in HepG2 cells [1]; HepG2 cells, 100 μM of exposure concentration): 8.4; maximum γ-H2AX value within the selected concentration range (γ-H2AX in HepG2 cells [1]; HepG2 cells, 24 h): 8.4; γ-H2AX MEC/MS (minimum effective concentration) (γ-H2AX in HepG2 cells [1]; HepG2 cells): ↑(10) µM; γ-H2AX MEC/MS (minimum effective concentration) (γ-H2AX in HepG2 cells [1]; HepG2 cells, listed as deoxyfluridine): 10 µM; k (speed of γ-H2AX descending) (γ-H2AX in HepG2 cells [3]): 4.157; t50 (time required for γ-H2AX to drop to half of the maximum value) (γ-H2AX in HepG2 cells [3]): 1.201 h |
| O=c1[nH]cc(F)c(=O)[nH]1 [5-fluorouracil] | + | 5.2 |  |
| CCC1=C[C@@H]2CN(C1)Cc1c([nH]c3ccccc13)[C@@](C(=O)OC)(c1cc3c(cc1OC)N(C)[C@H]1[C@@](O)(C(=O)OC)[C@H](OC(C)=O)[C@]4(CC)C=CCN5CC[C@]31[C@@H]54)C2 [Vinorelbine] |  | 3.3 | Variation of γ-H2AX (γ-H2AX in HepG2 cells [1]; human, 24 h): no variations of γ-H2AX |
| N.N.O=C([O-])C1(C(=O)[O-])CCC1.[Pt+2] [Carboplatin] | + |  | maximum γ-H2AX value within the selected concentration range (γ-H2AX in HepG2 cells [1]; HepG2 cells, 24 h): 7.2; γ-H2AX MEC/MS (minimum effective concentration) (γ-H2AX in HepG2 cells [1]; HepG2 cells): ↑(100) µM; γ-H2AX MEC/MS (minimum effective concentration) (γ-H2AX in HepG2 cells [1]; HepG2 cells, listed as carboplatin): 100 µM |
| C=C1C[C@@H]2[C@H](CC[C@]3(C)C(=O)CC[C@@H]23)[C@@]2(C)C=CC(=O)C=C12 [Exemestane] | − | 3.1 |  |
| CC[C@@]1(O)C(=O)OCc2c1cc1n(c2=O)Cc2c-1nc1cc(F)c(C)c3c1c2[C@@H](N)CC3 [Exatecan] | + | 19.2 | k (speed of γ-H2AX descending) (γ-H2AX in HepG2 cells [3]): 0.114; t50 (time required for γ-H2AX to drop to half of the maximum value) (γ-H2AX in HepG2 cells [3]): 3.925 h |
| O=C1c2c(O)ccc(O)c2C(=O)c2c(NCCNCCO)ccc(NCCNCCO)c21 [Mitoxantrone] | + |  | k (speed of γ-H2AX descending) (γ-H2AX in HepG2 cells [3]): 0.111; t50 (time required for γ-H2AX to drop to half of the maximum value) (γ-H2AX in HepG2 cells [3]): 7.999 h |
| C[C@]12CCC(=O)C(O)=C1CC[C@@H]1[C@@H]2CC[C@]2(C)C(=O)CC[C@@H]12 [Formestane] | − |  | maximum γ-H2AX value within the selected concentration range (γ-H2AX in HepG2 cells [1]; HepG2 cells, 24 h): 3.2; Genotoxicity in γ-H2AX MS assay (γ-H2AX in HepG2 cells [1]; HepG2 cells, 24 h): none of the selected antitumor hormones exhibited genotoxicity |
| CCCCCCNC(=O)n1cc(F)c(=O)[nH]c1=O [Carmofur] | + | 6.3 |  |
| CC[C@@]1(O)C(=O)OCc2c1cc1n(c2=O)Cc2cc3c(CN(C)C)c(O)ccc3nc2-1 [Topotecan] | + | 18.4 | k (speed of γ-H2AX descending) (γ-H2AX in HepG2 cells [3]): 0.132; t50 (time required for γ-H2AX to drop to half of the maximum value) (γ-H2AX in HepG2 cells [3]): 3.545 h |
| CN(C)/N=N/c1[nH]cnc1C(N)=O [Dacarbazine] | + | 5.8 |  |
| O=P1(N(CCCl)CCCl)NCCCO1 (centres unmarked) [Cyclophosphamide] | + |  | maximum γ-H2AX value within the selected concentration range (γ-H2AX in HepG2 cells [1]; HepG2 cells, 24 h): 7.4; Genotoxicity in γ-H2AX MS assay (γ-H2AX in HepG2 cells [1]; HepG2 cells, 24 h): genotoxic; γ-H2AX MEC/MS (minimum effective concentration) (γ-H2AX in HepG2 cells [1]; HepG2 cells): ↑(1000) µM |
| N#Cc1ccc(C(c2ccc(C#N)cc2)n2cncn2)cc1 [Letrozole] | − | 3.1 |  |
| Nc1nc2nc[nH]c2c(=S)[nH]1 [Thioguanine] | + | 6.6 |  |
| O=P1(NCCCl)OCCCN1CCCl (centres unmarked) [Ifosfamide] |  |  | γ-H2AX MEC/MS (minimum effective concentration) (γ-H2AX in HepG2 cells [1]; HepG2 cells): ↑(1000) µM |
